Changes are numbered by the printed parent chain.
Legend:
Type in all cases: biochemical
[1] = biological target: T1, human serine dehydratase (hSDH) Variant 2 (S26N, R51H, S63P, M70I, L94P, G129D, A204S, K221R, A222S), SEQ ID NO: 3 (Homo sapiens, UniProt P20132, A204S/A222S/G129D/K221R/L94P/M70I/R51H/S26N/S63P); assay: MBTH assay, kcat/Km of purified hSDH Variant 2; settings: role: substrate; threonine 1-100 mM, 1-2 μM enzyme, 37 °C, 20 seconds
T1 sequence (P20132 1-328 S26N/R51H/S63P/M70I/L94P/G129D/A204S/K221R/A222S): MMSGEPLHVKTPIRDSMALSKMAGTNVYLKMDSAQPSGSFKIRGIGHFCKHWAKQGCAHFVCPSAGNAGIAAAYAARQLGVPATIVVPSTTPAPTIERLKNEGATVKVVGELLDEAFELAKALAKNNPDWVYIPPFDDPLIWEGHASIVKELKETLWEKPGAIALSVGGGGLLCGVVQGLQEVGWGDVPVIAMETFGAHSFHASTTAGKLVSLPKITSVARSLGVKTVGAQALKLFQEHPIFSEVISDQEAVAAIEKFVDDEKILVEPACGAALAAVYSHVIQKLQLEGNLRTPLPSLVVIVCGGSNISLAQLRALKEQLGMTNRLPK
Method: (§1) Human SDH variants were expressed and purified for subsequent biophysical characterization. In brief, hSDH variants in the pET28a plasmid was transformed into BL21 (DE3) for expression. The cells were grown overnight at 37 °C in 5 mL of TB media with 50 μg/mL of kanamycin. The subsequent morning, cultures were inoculated, at a 1:1000 dilution, into 0.5 L of fresh TB media containing 50 μg/mL of kanamycin. Upon reaching an A600 of 0.6 to 0.8, the culture was moved to 25 °C and isopropyl β-D-1-thiogalactopyranoside (IPTG) was added to a final concentration of 1 mM to induce T7 RNA polymerase expression, and subsequently hSDH variant protein expression. After overnight incubation, cells were harvested via centrifugation at 5,500 rpm for 20 minutes. The cell pellet, after removing the supernatant, was resuspended using 25 mL of pET lysis buffer (10 mM NaH2PO4, 30 mM imidazole, 300 mM NaCl, pH 8.0). The cell suspension was then lysed by sonication and cleared by centrifugation at 14,000 rpm for 40 minutes. […] Purity of the proteins were analyzed via sodium dodecyl sulfate-polyacrylamide gel electrophoresis (SDS-PAGE) on a 4% to 20% pre-cast Tris-Glycine gel run under reducing conditions (2.5% β-Mercaptoethanol (BME). Protein concentration was determined via A280 under denaturing conditions using a calculated extinction coefficient (8280=33960 M^−1 cm^−1) from Geneious software (v. 8.0.5). […]

[2] = biological target: T2, human serine dehydratase (hSDH) Variant 4 (I13T, S26N, R51H, I96T, D114E, G129D, K221R, A222S, W157R, D261L, L112S), SEQ ID NO: 5 (Homo sapiens, UniProt P20132, A222S/D114E/D261L/G129D/I13T/I96T/K221R/L112S/R51H/S26N/W157R); assay: MBTH assay, kcat/Km of purified hSDH Variant 4; settings: role: substrate; threonine 1-100 mM, 1-2 μM enzyme, 37 °C, 20 seconds
T2 sequence (P20132 1-328 I13T/S26N/R51H/I96T/L112S/D114E/G129D/W157R/K221R/A222S/D261L): T1 sequence (P20132 1-328 S26N/R51H/S63P/M70I/L94P/G129D/A204S/K221R/A222S) with I13T, P63S, I70M, P94L, I96T, L112S, D114E, W157R, S204A, D261L
Method: as §1

[3] = biological target: T3, human serine dehydratase (hSDH) Variant 3 (S26N, R51H, S63P, M70I, L94P, G129D, A204S, K221R, A222S, L112S), SEQ ID NO: 4 (Homo sapiens, UniProt P20132, A204S/A222S/G129D/K221R/L112S/L94P/M70I/R51H/S26N/S63P); assay: MBTH assay, kcat/Km of purified hSDH Variant 3; settings: role: substrate; threonine 1-100 mM, 1-2 μM enzyme, 37 °C, 20 seconds
T3 sequence (P20132 1-328 S26N/R51H/S63P/M70I/L94P/L112S/G129D/A204S/K221R/A222S): T1 sequence (P20132 1-328 S26N/R51H/S63P/M70I/L94P/G129D/A204S/K221R/A222S) with L112S
Method: as §1

[4] = biological target: T4, human serine dehydratase (hSDH) Variant 5 (I13T, S26N, R51H, I96T, D114E, G129D, K221R, A222G, W157R, D261L, L112S), SEQ ID NO: 6 (Homo sapiens, UniProt P20132, A222G/D114E/D261L/G129D/I13T/I96T/K221R/L112S/R51H/S26N/W157R); assay: MBTH assay, kcat/Km of purified hSDH Variant 5; settings: role: substrate; threonine 1-100 mM, 1-2 μM enzyme, 37 °C, 20 seconds
T4 sequence (P20132 1-328 I13T/S26N/R51H/I96T/L112S/D114E/G129D/W157R/K221R/A222G/D261L): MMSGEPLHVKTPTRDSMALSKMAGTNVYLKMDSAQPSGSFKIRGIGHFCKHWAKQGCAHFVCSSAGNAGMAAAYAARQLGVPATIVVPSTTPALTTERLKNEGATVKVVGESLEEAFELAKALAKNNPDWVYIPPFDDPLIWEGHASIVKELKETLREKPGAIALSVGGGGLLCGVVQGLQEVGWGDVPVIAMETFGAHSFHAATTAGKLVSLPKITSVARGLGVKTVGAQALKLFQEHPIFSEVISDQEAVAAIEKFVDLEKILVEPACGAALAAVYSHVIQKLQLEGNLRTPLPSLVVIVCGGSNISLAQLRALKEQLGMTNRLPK
Method: as §1

[5] = biological target: T5, human serine dehydratase (hSDH) Variant 1 (K221F, A222S), SEQ ID NO: 2 (Homo sapiens, UniProt P20132, A222S/K221F); assay: MBTH assay, kcat/Km of purified hSDH Variant 1; settings: role: substrate; threonine 1-100 mM, 1-2 μM enzyme, 37 °C, 20 seconds
T5 construct: hexahistidine (N); made in house; host or cells: E. coli BL21 (DE3), pET28a
T5 sequence (P20132 1-328 K221F/A222S): T1 sequence (P20132 1-328 S26N/R51H/S63P/M70I/L94P/G129D/A204S/K221R/A222S) with N26S, H51R, P63S, I70M, P94L, D129G, S204A, R221F
Method: as §1

[6] = biological target: T6, human serine dehydratase (hSDH, EC 4.3.1.17), wild type, SEQ ID NO: 1 (Homo sapiens, UniProt P20132); assay: MBTH assay, kcat/Km of purified wild-type hSDH; settings: role: substrate
T6 construct: hexahistidine (N); made in house; host or cells: E. coli BL21 (DE3), pET28a
T6 sequence (P20132 1-328): T1 sequence (P20132 1-328 S26N/R51H/S63P/M70I/L94P/G129D/A204S/K221R/A222S) with N26S, H51R, P63S, I70M, P94L, D129G, S204A, R221K, S222A
Method: Human SDH variants were expressed and purified for subsequent biophysical characterization. In brief, hSDH variants in the pET28a plasmid was transformed into BL21 (DE3) for expression. The cells were grown overnight at 37 °C in 5 mL of TB media with 50 μg/mL of kanamycin. The subsequent morning, cultures were inoculated, at a 1:1000 dilution, into 0.5 L of fresh TB media containing 50 μg/mL of kanamycin. Upon reaching an A600 of 0.6 to 0.8, the culture was moved to 25 °C and isopropyl β-D-1-thiogalactopyranoside (IPTG) was added to a final concentration of 1 mM to induce T7 RNA polymerase expression, and subsequently hSDH variant protein expression. After overnight incubation, cells were harvested via centrifugation at 5,500 rpm for 20 minutes. The cell pellet, after removing the supernatant, was resuspended using 25 mL of pET lysis buffer (10 mM NaH2PO4, 30 mM imidazole, 300 mM NaCl, pH 8.0). The cell suspension was then lysed by sonication and cleared by centrifugation at 14,000 rpm for 40 minutes. The supernatant from this centrifugation step was then filtered using a 0.22 μm membrane. The clarified supernatant was then applied to 1 mL of nickel-nitrotriacetic acid (Ni-NTA) resin that had been pre-equilibrated with 20 mL of pET lysis buffer. The resin was washed with 20 mL (20 column volumes) of pET lysis buffer. Afterward, the resin was incubated with 3 mL of pET elution buffer (10 mM NaH2POd4, 250 mM imidazole, 300 mM NaCl, pH 8.0), equilibrated for 5 minutes, and then eluted. The elution step was then repeated with 2 ml of extra elution buffer to increase recovery. […] Purity of the proteins were analyzed via sodium dodecyl sulfate-polyacrylamide gel electrophoresis (SDS-PAGE) on a 4% to 20% pre-cast Tris-Glycine gel run under reducing conditions (2.5% β-Mercaptoethanol (BME). Protein concentration was determined via A280 under denaturing conditions using a calculated extinction coefficient (8280=33960 M^−1 cm^−1) from Geneious software (v. 8.0.5). […]

C[C@@H](O)[C@H](N)C(=O)O [Threonine, L-threonine]
Kcat /Km (Threonine) [1]: 2000 ± 50 M⁻¹ s⁻¹ | Kcat /Km (Threonine) [2]: 6800 ± 700 M⁻¹ s⁻¹ | Kcat /Km (Threonine) [3]: 2800 ± 200 M⁻¹ s⁻¹ | Kcat /Km (Threonine) [4]: 1700 ± 100 M⁻¹ s⁻¹ | Kcat /Km (Threonine) [5]: 3800 ± 300 M⁻¹ s⁻¹ | kcat/KM (L-threonine to α-ketobutyrate) ([6]; irreversible deamination of L-threonine to α-ketobutyrate): ~ 1.1 s^−1 mM^−1 | Kcat /Km (Threonine) ([6]; threonine 1-100 mM, 1-2 μM enzyme, 37 °C, 20 seconds): 1100 ± 50 M⁻¹ s⁻¹

N[C@@H](CO)C(=O)O [Serine, L-serine]
kcat/KM (L-serine to pyruvate) ([6]; irreversible deamination of L-serine to pyruvate): ~ 0.6 s^−1 mM^−1

Source: patent US20260375165A1, “ENGINEERED HUMAN SERINE DEHYDRATASE ENZYMES AND METHODS FOR TREATING CANCER” (BOARD OF REGENTS, THE UNIVERSITY OF TEXAS SYSTEM, priority 2022, published 2026)
